The experiment concerns L1210 leukemia ip in BDF1 mice, survival T/C. The experiment can be described thus: NCI In Vivo Anticancer Drug Screen. Data for tumor model L1210 Leukemia (intraperitoneal) in B6D2F1 (BDF1) mice. The settings on record: endpoint: mean survival time, higher = longer survival. An outline of the steps:
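Tumor was transplanted into mice, which were then dosed with test compound or vehicle alone. Survival was recorded for each group, and the treated figure was expressed relative to the control figure.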

The mark [1] stands for this setting: dose: 100.0 mg/kg/injection, schedule: Q01DX009 (ip), vehicle: Klucel (hydroxypropylcellulose) (HPC).
Where [2] appears, read: dose: 100.0 mg/kg/injection, schedule: Q04DX003 (ip), vehicle: Klucel (hydroxypropylcellulose) (HPC).
The mark [3] stands for this setting: dose: 200.0 mg/kg/injection, schedule: Q01DX009 (ip), vehicle: Klucel (hydroxypropylcellulose) (HPC).
[4] abbreviates: dose: 200.0 mg/kg/injection, schedule: Q04DX003 (ip), vehicle: Klucel (hydroxypropylcellulose) (HPC).
Setting [5] is: dose: 400.0 mg/kg/injection, schedule: Q01DX009 (ip), vehicle: Klucel (hydroxypropylcellulose) (HPC).
Setting [6] is: dose: 400.0 mg/kg/injection, schedule: Q04DX003 (ip), vehicle: Klucel (hydroxypropylcellulose) (HPC).
[7] abbreviates: dose: 100.0 mg/kg/injection, schedule: Q01DX009 (ip), vehicle: saline with Tween-80.

Several values for one entry are separate records, joined by “and”; a condition that tells them apart may be missing. Equal values may be shown once. Inconclusive results and toxic doses are left out.

For `CS(=O)(=O)OCCC(=O)N1CCN(C(=O)CCOS(C)(=O)=O)CC1`, the T/C runs as follows: (dose: 6.3 mg/kg/injection, schedule: Q01DX001 (ip), vehicle: carboxymethylcellulose (CMC)) 100 % of control and 105 % of control; (dose: 9.7 mg/kg/injection, schedule: Q01DX Z (ip), vehicle: methylcellulose (MC)) 106 % of control; (dose: 12.5 mg/kg/injection, schedule: Q01DX001 (ip), vehicle: carboxymethylcellulose (CMC)) 103 % of control and 122 % of control; (dose: 14.7 mg/kg/injection, schedule: Q01DX Z (ip), vehicle: methylcellulose (MC)) 104 % of control; (dose: 16.0 mg/kg/injection, schedule: Q01DX002 (ip), vehicle: saline) 115 % of control; (dose: 22.0 mg/kg/injection, schedule: Q01DX Z (ip), vehicle: methylcellulose (MC)) 110 % of control and 112 % of control. Also, the T/C is, setting by setting: (dose: 25.0 mg/kg/injection, schedule: Q01DX001 (ip), vehicle: carboxymethylcellulose (CMC)) 112 % of control and 115 % of control; (dose: 25.0 mg/kg/injection, schedule: Q04DX003 (ip), vehicle: saline) 108 % of control; (dose: 31.0 mg/kg/injection, schedule: Q01DX002 (ip), vehicle: saline) 105 % of control and 115 % of control; (dose: 31.25 mg/kg/injection, schedule: Q01DX Z (ip), vehicle: methylcellulose (MC)) 156 % of control; (dose: 33.5 mg/kg/injection, schedule: Q01DX Z (ip), vehicle: methylcellulose (MC)) 150 % of control; (dose: 50.0 mg/kg/injection, schedule: Q01DX001 (ip), vehicle: saline) 121 % of control. For the same molecule, the T/C (dose: 50.0 mg/kg/injection, schedule: Q04DX003 (ip), vehicle: saline) was 123 % of control; the T/C (dose: 62.5 mg/kg/injection, schedule: Q01DX Z (ip), vehicle: methylcellulose (MC)) is 176 % of control; the T/C (dose: 75.0 mg/kg/injection, schedule: Q01DX Z (ip), vehicle: methylcellulose (MC)) was 162 % of control; the T/C (dose: 76.0 mg/kg/injection, schedule: Q01DX Z (ip), vehicle: methylcellulose (MC)) is 218 % of control; the T/C (dose: 100.0 mg/kg/injection, schedule: Q04DX003 (ip), vehicle: saline) is 153 % of control and 195 % of control; the T/C (dose: 170.0 mg/kg/injection, schedule: Q01DX Z (ip), vehicle: methylcellulose (MC)) was 103 % of control and 115 % of control. The T/C (dose: 200.0 mg/kg/injection, schedule: Q01DX001 (ip), vehicle: saline) is 167 % of control; the T/C (dose: 225.0 mg/kg/injection, schedule: Q01DX Z (ip), vehicle: methylcellulose (MC)) is 93 % of control; the T/C (dose: 250.0 mg/kg/injection, schedule: Q01DX002 (ip), vehicle: saline) is 205 % of control and 240 % of control; the T/C (dose: 400.0 mg/kg/injection, schedule: Q01DX001 (ip), vehicle: saline) was 213 % of control.
Take `CC(=O)Nc1ccc(C=Nc2ccccc2)cc1`: the T/C was 107 % of control under setting [1]; 96 % of control under setting [2]; 102 % of control under setting [3]; 97 % of control under setting [4]; 111 % of control under setting [5]; 97 % of control under setting [6].
For `CCC1OCC(C(Cl)CCl)O1` (stereo not drawn), the T/C (dose: 100.0 mg/kg/injection, schedule: Q01DX009 (ip), vehicle: saline sonified) is 99 % of control.
In the case of `CCN(CC)c1cc(Cl)c(C=O)cc1Br`, the T/C runs as follows: under setting [1], 98 % of control; under setting [2], 105 % of control; under setting [3], 100 % of control; under setting [4], 98 % of control; under setting [5], 100 % of control; under setting [6], 104 % of control.
As to `COc1ccc(C(=S)N(C)c2ccccc2)cc1`, the T/C runs as follows: (dose: 100.0 mg/kg/injection, schedule: Q04DX003 (ip), vehicle: gum acacia) 96 % of control; (dose: 200.0 mg/kg/injection, schedule: Q04DX003 (ip), vehicle: gum acacia) 93 % of control; (dose: 400.0 mg/kg/injection, schedule: Q04DX003 (ip), vehicle: gum acacia) 95 % of control.
As for `Nc1c(N=O)c(=O)n(Cc2ccccc2)c(=O)n1Cc1ccccc1`, the T/C is 103 % of control (dose: 50.0 mg/kg/injection, schedule: Q01DX001 (ip), vehicle: carboxymethylcellulose (CMC)); 105 % of control (dose: 100.0 mg/kg/injection, schedule: Q01DX001 (ip), vehicle: carboxymethylcellulose (CMC)); 97 % of control (dose: 200.0 mg/kg/injection, schedule: Q01DX001 (ip), vehicle: carboxymethylcellulose (CMC)); 100 % of control (dose: 400.0 mg/kg/injection, schedule: Q01DX001 (ip), vehicle: carboxymethylcellulose (CMC)).
As to `CC(C)(C)c1cc(CN2CCCCC2)cc(C(C)(C)C)c1O`, the T/C is 101 % of control (dose: 12.5 mg/kg/injection, schedule: Q04DX003 (ip), vehicle: Klucel (hydroxypropylcellulose) (HPC)); 114 % of control (dose: 25.0 mg/kg/injection, schedule: Q04DX003 (ip), vehicle: Klucel (hydroxypropylcellulose) (HPC)); 97 % of control (dose: 50.0 mg/kg/injection, schedule: Q04DX003 (ip), vehicle: Klucel (hydroxypropylcellulose) (HPC)).
For `CC1CCc2ccccc2N1C1=NCCO1` (stereo not drawn), the T/C is, setting by setting: (dose: 19.0 mg/kg/injection, schedule: Q04DX003 (ip), vehicle: saline) 97 % of control; (dose: 38.0 mg/kg/injection, schedule: Q04DX003 (ip), vehicle: saline) 94 % of control; (dose: 75.0 mg/kg/injection, schedule: Q01DX001 (ip), vehicle: saline) 102 % of control.
For `Clc1ccc(C#CP(C#Cc2ccc(Cl)cc2)C#Cc2ccc(Cl)cc2)cc1`, the T/C (dose: 50.0 mg/kg/injection, schedule: Q01DX009 (ip), vehicle: saline with Tween-80) is 88 % of control and the T/C under setting [7] was 103 % of control.
With `S=c1[nH]c(Cc2ccccc2)cs1`, the T/C is 103 % of control (dose: 100.0 mg/kg/injection, schedule: Q01DX001 (sc), vehicle: carboxymethylcellulose (CMC)); 105 % of control (dose: 200.0 mg/kg/injection, schedule: Q01DX001 (sc), vehicle: carboxymethylcellulose (CMC)); 103 % of control (dose: 400.0 mg/kg/injection, schedule: Q01DX001 (sc), vehicle: carboxymethylcellulose (CMC)).
Consider `c1ccc([C]([Hg][C](=C(c2ccccc2)c2ccccc2)c2ccccc2)=C(c2ccccc2)c2ccccc2)cc1`, for which the T/C is 95 % of control (dose: 50.0 mg/kg/injection, schedule: Q01DX001 (ip), vehicle: Klucel (hydroxypropylcellulose) (HPC)); 88 % of control (dose: 100.0 mg/kg/injection, schedule: Q01DX001 (ip), vehicle: Klucel (hydroxypropylcellulose) (HPC)); 90 % of control (dose: 200.0 mg/kg/injection, schedule: Q01DX001 (ip), vehicle: Klucel (hydroxypropylcellulose) (HPC)).
Regarding `CCOC(=O)c1cnc(SC)nc1Nc1ccc(F)cc1`, the T/C was 88 % of control under setting [2], 100 % of control under setting [4] and 95 % of control under setting [6].
Take `NC(=O)C1CCC(C(N)=O)CC1` (stereo not drawn): the T/C (dose: 100.0 mg/kg/injection, schedule: Q01DX001 (ip), vehicle: saline with Tween-80) is 106 % of control; the T/C under setting [7] is 100 % of control; the T/C (dose: 100.0 mg/kg/injection, schedule: Q04DX003 (ip), vehicle: saline with Tween-80) was 100 % of control; the T/C (dose: 200.0 mg/kg/injection, schedule: Q01DX001 (ip), vehicle: saline with Tween-80) was 98 % of control; the T/C (dose: 200.0 mg/kg/injection, schedule: Q01DX009 (ip), vehicle: saline with Tween-80) is 100 % of control; the T/C (dose: 200.0 mg/kg/injection, schedule: Q04DX003 (ip), vehicle: saline with Tween-80) was 115 % of control. In addition, the T/C was 98 % of control (dose: 400.0 mg/kg/injection, schedule: Q01DX001 (ip), vehicle: saline with Tween-80); 107 % of control (dose: 400.0 mg/kg/injection, schedule: Q01DX009 (ip), vehicle: saline with Tween-80); 102 % of control (dose: 400.0 mg/kg/injection, schedule: Q04DX003 (ip), vehicle: saline with Tween-80).

The record behind these values is PubChem BioAssay AID248 (DTP/NCI, 2004).
